ChEMBL document CHEMBL3044736, “Synthesis, characterization, solvatochromic properties, and antimicrobial evaluation of 5-acetyl-2-thioxo-dihydro-pyrimidine-4,6-dione-based chalcones” (2013)
Converted amounts (≈) assume the structure as drawn.

What was measured:
Assay type in all cases: functional
[1] = tested on: Escherichia coli; experiment: Antimicrobial activity against Escherichia coli MTCC 443 assessed as diameter of growth inhibition zone at 25 ug/ml after 18-24 hr by agar cup diffusion method; settings: read-out: DIZ
[2] = tested on: Escherichia coli; experiment: Antimicrobial activity against Escherichia coli MTCC 443 assessed as diameter of growth inhibition zone at 50 ug/ml after 18-24 hr by agar cup diffusion method; settings: read-out: DIZ
[3] = tested on: Candida albicans; experiment: Antimicrobial activity against Candida albicans MTCC 227 assessed as diameter of growth inhibition zone at 50 ug/ml after 48-96 hr by agar cup diffusion method; settings: read-out: DIZ
[4] = tested on: Escherichia coli; experiment: Antimicrobial activity against Escherichia coli MTCC 443 assessed as diameter of growth inhibition zone at 250 ug/ml after 18-24 hr by agar cup diffusion method; settings: read-out: DIZ
[5] = tested on: Pseudomonas aeruginosa; experiment: Antimicrobial activity against Pseudomonas aeruginosa MTCC 1688 assessed as diameter of growth inhibition zone at 250 ug/ml after 18-24 hr by agar cup diffusion method; settings: read-out: DIZ
[6] = tested on: Trichophyton rubrum; experiment: Antimicrobial activity against Trichophyton rubrum MTCC 296 assessed as diameter of growth inhibition zone at 50 ug/ml after 48-96 hr by agar cup diffusion method; settings: read-out: DIZ
[7] = tested on: Penicillium; experiment: Antimicrobial activity against Penicillium wild strain assessed as diameter of growth inhibition zone at 50 ug/ml after 48-96 hr by agar cup diffusion method; settings: read-out: DIZ
[8] = tested on: Pseudomonas aeruginosa; experiment: Antimicrobial activity against Pseudomonas aeruginosa MTCC 1688 assessed as diameter of growth inhibition zone at 50 ug/ml after 18-24 hr by agar cup diffusion method; settings: read-out: DIZ
[9] = tested on: Klebsiella pneumoniae; experiment: Antimicrobial activity against Klebsiella pneumoniae MTCC 109 assessed as diameter of growth inhibition zone at 50 ug/ml after 18-24 hr by agar cup diffusion method; settings: read-out: DIZ
[10] = tested on: Streptococcus pyogenes; experiment: Antimicrobial activity against Streptococcus pyogenes MTCC 442 by agar cup diffusion method
[11] = tested on: Trichophyton rubrum; experiment: Antimicrobial activity against Trichophyton rubrum MTCC 296 assessed as diameter of growth inhibition zone at 100 ug/ml after 48-96 hr by agar cup diffusion method; settings: read-out: DIZ
[12] = tested on: Staphylococcus aureus; experiment: Antimicrobial activity against Staphylococcus aureus MTCC 96 by agar cup diffusion method
[13] = tested on: Penicillium; experiment: Antimicrobial activity against Penicillium wild strain assessed as diameter of growth inhibition zone at 250 ug/ml after 48-96 hr by agar cup diffusion method; settings: read-out: DIZ
[14] = tested on: Staphylococcus aureus; experiment: Antimicrobial activity against Staphylococcus aureus MTCC 96 assessed as diameter of growth inhibition zone at 100 ug/ml after 18-24 hr by agar cup diffusion method; settings: read-out: DIZ
[15] = tested on: Penicillium; experiment: Antimicrobial activity against Penicillium wild strain assessed as diameter of growth inhibition zone at 100 ug/ml after 48-96 hr by agar cup diffusion method; settings: read-out: DIZ
[16] = tested on: Streptococcus pyogenes; experiment: Antimicrobial activity against Streptococcus pyogenes MTCC 442 assessed as diameter of growth inhibition zone at 250 ug/ml after 18-24 hr by agar cup diffusion method; settings: read-out: DIZ
[17] = tested on: Trichophyton rubrum; experiment: Antimicrobial activity against Trichophyton rubrum MTCC 296 assessed as diameter of growth inhibition zone at 25 ug/ml after 48-96 hr by agar cup diffusion method; settings: read-out: DIZ
[18] = tested on: Streptococcus pyogenes; experiment: Antimicrobial activity against Streptococcus pyogenes MTCC 442 assessed as diameter of growth inhibition zone at 25 ug/ml after 18-24 hr by agar cup diffusion method; settings: read-out: DIZ
[19] = tested on: Staphylococcus aureus; experiment: Antimicrobial activity against Staphylococcus aureus MTCC 96 assessed as diameter of growth inhibition zone at 50 ug/ml after 18-24 hr by agar cup diffusion method; settings: read-out: DIZ
[20] = tested on: Klebsiella pneumoniae; experiment: Antimicrobial activity against Klebsiella pneumoniae MTCC 109 assessed as diameter of growth inhibition zone at 250 ug/ml after 18-24 hr by agar cup diffusion method; settings: read-out: DIZ
[21] = tested on: Escherichia coli; experiment: Antimicrobial activity against Escherichia coli MTCC 443 assessed as diameter of growth inhibition zone at 100 ug/ml after 18-24 hr by agar cup diffusion method; settings: read-out: DIZ
[22] = tested on: Aspergillus clavatus; experiment: Antimicrobial activity against Aspergillus clavatus MTCC 1323 by agar cup diffusion method
[23] = tested on: Staphylococcus aureus; experiment: Antimicrobial activity against Staphylococcus aureus MTCC 96 assessed as diameter of growth inhibition zone at 25 ug/ml after 18-24 hr by agar cup diffusion method; settings: read-out: DIZ
[24] = tested on: Klebsiella pneumoniae; experiment: Antimicrobial activity against Klebsiella pneumoniae MTCC 109 by agar cup diffusion method
[25] = tested on: Aspergillus clavatus; experiment: Antimicrobial activity against Aspergillus clavatus MTCC 1323 assessed as diameter of growth inhibition zone at 100 ug/ml after 48-96 hr by agar cup diffusion method; settings: read-out: DIZ
[26] = tested on: Penicillium; experiment: Antimicrobial activity against Penicillium wild strain assessed as diameter of growth inhibition zone at 25 ug/ml after 48-96 hr by agar cup diffusion method; settings: read-out: DIZ
[27] = tested on: Trichophyton rubrum; experiment: Antimicrobial activity against Trichophyton rubrum MTCC 296 assessed as diameter of growth inhibition zone at 250 ug/ml after 48-96 hr by agar cup diffusion method; settings: read-out: DIZ
[28] = tested on: Aspergillus clavatus; experiment: Antimicrobial activity against Aspergillus clavatus MTCC 1323 assessed as diameter of growth inhibition zone at 25 ug/ml after 48-96 hr by agar cup diffusion method; settings: read-out: DIZ
[29] = tested on: Candida albicans; experiment: Antimicrobial activity against Candida albicans MTCC 227 by agar cup diffusion method
[30] = tested on: Pseudomonas aeruginosa; experiment: Antimicrobial activity against Pseudomonas aeruginosa MTCC 1688 assessed as diameter of growth inhibition zone at 100 ug/ml after 18-24 hr by agar cup diffusion method; settings: read-out: DIZ
[31] = tested on: Streptococcus pyogenes; experiment: Antimicrobial activity against Streptococcus pyogenes MTCC 442 assessed as diameter of growth inhibition zone at 100 ug/ml after 18-24 hr by agar cup diffusion method; settings: read-out: DIZ
[32] = tested on: Penicillium; experiment: Antimicrobial activity against Penicillium wild strain by agar cup diffusion method
[33] = tested on: Pseudomonas aeruginosa; experiment: Antimicrobial activity against Pseudomonas aeruginosa MTCC 1688 by agar cup diffusion method
[34] = tested on: Aspergillus clavatus; experiment: Antimicrobial activity against Aspergillus clavatus MTCC 1323 assessed as diameter of growth inhibition zone at 250 ug/ml after 48-96 hr by agar cup diffusion method; settings: read-out: DIZ
[35] = tested on: Klebsiella pneumoniae; experiment: Antimicrobial activity against Klebsiella pneumoniae MTCC 109 assessed as diameter of growth inhibition zone at 25 ug/ml after 18-24 hr by agar cup diffusion method; settings: read-out: DIZ
[36] = tested on: Trichophyton rubrum; experiment: Antimicrobial activity against Trichophyton rubrum MTCC 296 by agar cup diffusion method
[37] = tested on: Candida albicans; experiment: Antimicrobial activity against Candida albicans MTCC 227 assessed as diameter of growth inhibition zone at 100 ug/ml after 48-96 hr by agar cup diffusion method; settings: read-out: DIZ
[38] = tested on: Escherichia coli; experiment: Antimicrobial activity against Escherichia coli MTCC 443 by agar cup diffusion method
[39] = tested on: Pseudomonas aeruginosa; experiment: Antimicrobial activity against Pseudomonas aeruginosa MTCC 1688 assessed as diameter of growth inhibition zone at 25 ug/ml after 18-24 hr by agar cup diffusion method; settings: read-out: DIZ
[40] = tested on: Streptococcus pyogenes; experiment: Antimicrobial activity against Streptococcus pyogenes MTCC 442 assessed as diameter of growth inhibition zone at 50 ug/ml after 18-24 hr by agar cup diffusion method; settings: read-out: DIZ
[41] = tested on: Candida albicans; experiment: Antimicrobial activity against Candida albicans MTCC 227 assessed as diameter of growth inhibition zone at 25 ug/ml after 48-96 hr by agar cup diffusion method; settings: read-out: DIZ
[42] = tested on: Aspergillus clavatus; experiment: Antimicrobial activity against Aspergillus clavatus MTCC 1323 assessed as diameter of growth inhibition zone at 50 ug/ml after 48-96 hr by agar cup diffusion method; settings: read-out: DIZ
[43] = tested on: Klebsiella pneumoniae; experiment: Antimicrobial activity against Klebsiella pneumoniae MTCC 109 assessed as diameter of growth inhibition zone at 100 ug/ml after 18-24 hr by agar cup diffusion method; settings: read-out: DIZ
[44] = tested on: Candida albicans; experiment: Antimicrobial activity against Candida albicans MTCC 227 assessed as diameter of growth inhibition zone at 250 ug/ml after 48-96 hr by agar cup diffusion method; settings: read-out: DIZ
[45] = tested on: Staphylococcus aureus; experiment: Antimicrobial activity against Staphylococcus aureus MTCC 96 assessed as diameter of growth inhibition zone at 250 ug/ml after 18-24 hr by agar cup diffusion method; settings: read-out: DIZ

With `O=C(/C=C/c1ccc(Cl)cc1)C1C(=O)NC(=S)NC1=O` the zone of inhibition at 25 µg/mL [1] was 11 mm, the zone of inhibition at 50 µg/mL [2] was 14 mm and the zone of inhibition at 50 µg/mL [3] was 21 mm. It also gave a zone of inhibition at 250 µg/mL [4] of 19 mm, a zone of inhibition at 250 µg/mL [5] of 15 mm and a zone of inhibition at 50 µg/mL [6] of 20 mm. It also gave a zone of inhibition at 50 µg/mL [7] of 22 mm, a zone of inhibition at 50 µg/mL [8] of 12 mm and a zone of inhibition at 50 µg/mL [9] of 15 mm. For the same molecule, the MBC [10] was 125 mg/L (≈ 405 µM), the MIC [10] was 100 mg/L (≈ 324 µM) and the zone of inhibition at 100 µg/mL [11] was 21 mm. For the same molecule, the MBC [12] was 100 mg/L (≈ 324 µM), the MIC [12] was 100 mg/L (≈ 324 µM) and the zone of inhibition at 250 µg/mL [13] was 25 mm. For the same molecule, the zone of inhibition at 100 µg/mL [14] was 13 mm, the zone of inhibition at 100 µg/mL [15] was 23 mm and the zone of inhibition at 250 µg/mL [16] was 19 mm. It also gave a zone of inhibition at 25 µg/mL [17] of 18 mm, a zone of inhibition at 25 µg/mL [18] of 11 mm and a zone of inhibition at 50 µg/mL [19] of 12 mm. The zone of inhibition at 250 µg/mL [20] was 20 mm, the zone of inhibition at 100 µg/mL [21] was 17 mm and the MFC [22] was 500 mg/L (≈ 1620 µM). It also gave an MIC [22] of 500 mg/L (≈ 1620 µM), a zone of inhibition at 25 µg/mL [23] of 11 mm and an MBC [24] of 125 mg/L (≈ 405 µM). It also gave an MIC [24] of 100 mg/L (≈ 324 µM), a zone of inhibition at 100 µg/mL [25] of 22 mm and a zone of inhibition at 25 µg/mL [26] of 19 mm. It also gave a zone of inhibition at 250 µg/mL [27] of 22 mm, a zone of inhibition at 25 µg/mL [28] of 18 mm and an MFC [29] of 500 mg/L (≈ 1620 µM). It also gave an MIC [29] of 500 mg/L (≈ 1620 µM), a zone of inhibition at 100 µg/mL [30] of 13 mm and a zone of inhibition at 100 µg/mL [31] of 17 mm. It also gave an MFC [32] of over 1000 mg/L, an MIC [32] of over 1000 mg/L and an MBC [33] of 250 mg/L (≈ 810 µM). The MIC [33] was 200 mg/L (≈ 648 µM), the zone of inhibition at 250 µg/mL [34] was 22 mm and the zone of inhibition at 25 µg/mL [35] was 13 mm. The MFC [36] was over 1000 mg/L, the MIC [36] was over 1000 mg/L and the zone of inhibition at 100 µg/mL [37] was 22 mm. The MBC [38] was 125 mg/L (≈ 405 µM), the MIC [38] was 125 mg/L (≈ 405 µM) and the zone of inhibition at 25 µg/mL [39] was 11 mm. The zone of inhibition at 50 µg/mL [40] was 14 mm, the zone of inhibition at 25 µg/mL [41] was 20 mm and the zone of inhibition at 50 µg/mL [42] was 20 mm. It also gave a zone of inhibition at 100 µg/mL [43] of 17 mm, a zone of inhibition at 250 µg/mL [44] of 23 mm and a zone of inhibition at 250 µg/mL [45] of 15 mm.
